The results in this text go back to ChEMBL document CHEMBL1201862, “PubChem BioAssay data set” (2004).

Assay in all cases: NCI anticancer screen, dose series, 48 h
Assay [1] concerns UACC-62.
In assay [2] the test system is UO-31.
Assay [3] concerns SW-620.
In assay [4] the test system is SF-268.
Assay [5] has as its system SNB-19.
The subject of assay [6] is SF-295.
Assay [7] relates to M14.
The subject of assay [8] is SN12C.
For assay [9], the system named is 786-0.
For assay [10], the system named is SK-OV-3.
Assay [11] relates to SK-MEL-28.
The test system of assay [12] is U-251.
The subject of assay [13] is MOLT-4.
Assay [14] deals with HCT-15.
The test system of assay [15] is IGROV-1.
The subject of assay [16] is CAKI-1.
The subject of assay [17] is HL-60.
Assay [18] concerns CCRF-CEM.
For assay [19], the system named is TK-10.
The subject of assay [20] is OVCAR-4.

SMILES strings stand for the structures.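 These data come from cells grown in 96-well plates and exposed to compound for 48 hours at five concentrations. The concentration for 50% growth inhibition is given as GI50.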 Activity calls are given as the source filed them. No stated cut-off is given here; in the data, active = GI50 up to about 1.1 µM and inactive = higher.

As to `COC(=O)N/N=c1\cc(C(=O)Nc2ccc(C)c(C)c2)oc2cc(O)ccc12`, the GI50 in assay [1], in assay [2], in [3], in assay [4], in assay [5] and in [6] was > 100 µM (inactive) each time. For the same compound, the GI50 in assay [7], in assay [8], in [9], in assay [10], in assay [11] and in [12] was > 100 µM (inactive) each time. Moreover, the GI50 in assay [13] is > 100 µM (inactive); in [14] it was > 100 µM; in assay [15] it was > 100 µM (inactive); in assay [16] it was > 100 µM (inactive); in assay [17], > 100 µM (inactive); in assay [18] it was > 100 µM (inactive). For the same compound, the GI50 in [19] and in assay [20] was > 100 µM (inactive) in each case.
